The values below come from patent publication EP0786252A1 (priority 1994, dated 1996).

Where two headings read alike, the source gives them in different places.

Data set [1] has as its system lymphocytic leukemia P388 cells. As to the kind of experiment: Antiproliferative activity against drug-resistant tumor cells (cell count after 72 hours). The format is cell-based. How it is done: (§1) Compound (I) was tested for its antiproliferative activity against lymphocytic leukemia P388 cells, adriamycin-resistant P388 cells (P388/ADM), cisplatin-resistant P388 cells (P388/CDDP), cyclophosphamide-resistant P388 cells (P388/CPM), and mitomycin C-resistant P388 cells (P388/MMC), in the manner described below.
P388 cells were suspended in an RPMI-1640 medium containing 10 % fetal calf serum, 100 units/ml penicillin, 100 µg/ml streptomycin and 20 µM 2-mercaptoethanol at a concentration of 3 x 10^4 cells/ml, and 0.1 ml of the cell suspension was put into each well of a 96-well microplate. The cells were incubated in a carbon dioxide incubator (5 % carbon dioxide) overnight at 37°C, and 0.05 ml/well of a compound (I) that had been suitably diluted with the medium was added to each well.
(§2) The cells were further incubated in the carbon dioxide incubator for 72 hours, then the culture supernatant was removed, and the number of the cells was counted using a cell counter. The number of non-treated cells was compared with that of cells treated with the compound (I), from which was obtained the concentration of the chemical that inhibited 50 % of the cell growth. This is referred to as IC50.

Data set [2] relates to cyclophosphamide-resistant P388 cells (P388/CPM). The description is as above. The format is cell-based. The procedure:
as §1
(§3) P388 cells were suspended in an RPMI-1640 medium containing 10 % fetal calf serum, 100 units/ml penicillin, 100 µg/ml streptomycin and 20 µM 2-mercaptoethanol at a concentration of 3 x 10^4 cells/ml, and 0.1 ml of the cell suspension was put into each well of a 96-well microplate.
as §2
(§4) For the others, P388/ADM cells, P388/CDDP cells, P388/CPM cells and P388/MMC cells, IC50 of the compound (I) was obtained in the same manner as above.

The subject of data set [3] is mitomycin C-resistant P388 cells (P388/MMC). The description is as above. The format is cell-based. The procedure: as §1, §3, §2, §4
The test system of data set [4] is cisplatin-resistant P388 cells (P388/CDDP). The description is as above. The format is cell-based. How it is done: as §1, §3, §2, §4
The subject of data set [5] is adriamycin-resistant P388 cells (P388/ADM). The description is as above. The class given is cell-based. The procedure:
as §1, §3, §2, §4

Data set [6] is described as follows: Acute toxicity, intravenous administration. The class given is in vivo. The settings on record: mouse, in vivo, male ddY mice, 30 days after administration, probit analysis. From the text:
(§5) Compound (I) was intravenously administered to ddY mice (male; body weight, 19 to 21 g). 30 days after the administration, LD50 and LD10 were obtained through probit analysis.

For a further data set, the system named is ddY mice. Briefly: Acute toxicity, intravenous administration. The settings on record: male ddY mice; for Death Rate: 30 days. The format is in vivo.
Text: as §5

Take `COc1cccc2c1C(=O)c1c(O)c3c(c(O)c1C2=O)C[C@@](O)(C(=O)CO)C[C@@H]3O[C@H]1C[C@H](N)[C@H](O)[C@H](C)O1` [ADM, Adriamycin]: the IC50 (as a rule, the concentration at which inhibition is half-maximal) in data set [1] (Mus musculus, P388 cells, 72 hours incubation, read-out: IC50) was determined as 6.62 nM; in data set [2] (Mus musculus, P388/CPM cells, 72 hours incubation, read-out: IC50), 5.79 nM; in data set [3] (Mus musculus, P388/MMC cells, 72 hours incubation, read-out: IC50), 14.7 nM; in data set [4] (Mus musculus, P388/CDDP cells, 72 hours incubation, read-out: IC50), 18.1 nM; in data set [5] (Mus musculus, P388/ADM cells, 72 hours incubation, read-out: IC50), 571 nM.
Regarding `[NH2][Pt]([NH2])([Cl])[Cl]` [CDDP, Cisplatin], the IC50 was found to be 75.4 nM in data set [1] (P388 cells, 72 hours incubation, read-out: IC50); 504 nM in data set [2] (P388/CPM cells, 72 hours incubation, read-out: IC50); 1090 nM in data set [3] (P388/MMC cells, 72 hours incubation, read-out: IC50); 4080 nM in data set [4] (P388/CDDP cells, 72 hours incubation, read-out: IC50); 88.3 nM in data set [5] (P388/ADM cells, 72 hours incubation, read-out: IC50).
In the case of `COC(=O)c1c(C)[nH]c2c(OC(=O)N3CCN(C)CC3)cc3c(c12)C(CBr)CN3C(=O)c1cc2cc(OC)c(OC)c(OC)c2[nH]1` (stereo not shown) [Compound 1], the LD50 – broadly, the dose expected to kill half of the subjects tested – at 720 h in data set [6] worked out at 0.81 mg/kg. The “Mean Survival Time” value in the data set with ddY mice (Dose 0.48 mg/kg) is reported as “No died”; in the data set on ddY mice (Dose 0.57 mg/kg) it was 11.6 +/- 3.4 days +/- SD; in the data set with ddY mice (Dose 0.69 mg/kg) it was 11.6 +/- 1.5 days +/- SD; in the data set with ddY mice (Dose 0.82 mg/kg), 8.3 +/- 1.8 days +/- SD; in the data set with ddY mice (Dose 0.99 mg/kg), 6.8 +/- 1.6 days +/- SD; in the data set with ddY mice (Dose 1.2 mg/kg), 5.6 +/- 1.8 days +/- SD. Further, the “Death Rate” value in the data set with ddY mice (Dose 0.48 mg/kg) is 0/20; in the data set on ddY mice (Dose 0.57 mg/kg) it was 2/20; with ddY mice (Dose 0.69 mg/kg), 3/20; in the data set with ddY mice (Dose 0.82 mg/kg), 10/20; in the data set on ddY mice (Dose 0.99 mg/kg), 17/20; in the data set on ddY mice (Dose 1.2 mg/kg), 20/20. In the data set with ddY mice (30 days after administration, probit analysis), this molecule gave an LD10 of 0.63 mg/kg. Moreover, the concentration for half-maximal inhibition (IC50) was 8.17 nM in data set [1] (Mus musculus, P388, 72 h); 6.34 nM in data set [2] (Mus musculus, P388, 72 h); 15.3 nM in data set [3] (Mus musculus, P388, 72 h); 19.8 nM in data set [4] (Mus musculus, P388, 72 h); 15.6 nM in data set [5] (Mus musculus, P388/ADM, 72 h).
As for `CO[C@@]12[C@H](COC(N)=O)C3=C(C(=O)C(C)=C(N)C3=O)N1C[C@@H]1N[C@@H]12` [MMC, Mitomycin C], the 50% inhibitory concentration (IC50) in data set [1] (Mus musculus, P388, 72 h) is 40.2 nM; in data set [2] (Mus musculus, P388, 72 h), 94.4 nM; in data set [3] (Mus musculus, P388, 72 h), greater than 300 nM; in data set [4] (Mus musculus, P388, 72 h), 186 nM; in data set [5] (Mus musculus, P388/ADM, 72 h), 56.9 nM.
